Assay results: patent publication US10722463B2, “Compositions and methods using same for delivering agents into a target organ protected by a blood barrier” (Zuli Holdings Ltd., priority 2005, dated 2020)

System: blood barrier of rabbit brain
Test: Detection of liposomes in the brain and spinal cord by confocal microscopy after intravenous injection (Example 1)
Format: in vivo, New Zealand White male rabbits
Details: rabbits, 1.5 ml/kg intravenous, one and four hours following administration
Experimental: A particular liposome formulation was tested for crossing the blood barrier of rabbit brain.
The rabbits were perfused with 200-250 ml PBS prior to spinal cord excision (post the border of the medulla oblongata (between C1 to C2)) and brain removal as shown in FIG. 1 (frontal neocortex (frontal part), corpus callosum, hippocampus and mid brain)). The brains and spinal cords were harvested and fixed (3.7% formalin/PBS) for 10 minutes (37% formalin diluted with PBS 1:10, to a final concentration of 3.7%). The fixed brains and spinal cords were embedded in OCT compound, placed into plastic molds and frozen at −70° C. 8-10 μm tissue slices were cut using a cryotome at −20° C. and fixed on slides after which they were rinsed with PBS for 5 minutes. Finally, slides were mounted using mounting solution (80% glycerol/20% PBS) and sealed with nail polish. Slides were analyzed using confocal microscopy.

Compound | detection of fluorescent marker in spinal cord and brain tissue
O=S(=O)(O)c1cc(O)c2ccc3c(S(=O)(=O)O)cc(S(=O)(=O)O)c4ccc1c2c34 [1-Hydroxypyren-3,6,8-Trisulfonic acid] | can be detected
Rhodamin-DSPE | can be detected
